{"source": "patent EP2210584A1", "about": "“Stable polymeric composition comprising an epothilone and an amphiphilic block copolymer” (priority 2009, dated 2010)", "assay": "Detection of degradation products of sagopilone by HPLC chromatogram", "type": "physicochemical", "settings": "storage of 24 hours at 4°C", "method": "The method for measuring the sagopilone content of the micellar dispersions as well as the detection of degradation products is determined by High Performance Liquid Chromatography. The analysis was done on a Agilent 1100 Series chromatography system consisting of a quaternary pump, an autoinjector, a column heater and a UV-detector from Agilent Technologies, Santa Clara, USA ."}
{"smiles": "C=CC[C@H]1C(=O)C(C)(C)[C@@H](O)CC(=O)O[C@H](c2ccc3sc(C)nc3c2)C[C@@H]2O[C@]2(C)CCC[C@H](C)[C@@H]1O", "note": "[Sagopilone, (1S,3S,7S,10R,11S,12S,16R)-7,11-dihydroxy-10-(prop-2-en-1-yl)-3-(2-methylbenzothiazol-5-yl)-8,8,12,16-tetramethyl-4,17-dioxabicyclo[14.1.0]heptadecane-5,9-dione]", "values": [{"measurement": "degradation of Sagopilone solubilized within the polymeric micelles", "result": "did not degrade"}]}
